Reference: publication PMC5597121, “The human bitter taste receptor T2R38 is broadly tuned for bacterial compounds” (PLoS ONE, 2017)
Substitutions are numbered along the chain they refer to. “And” between values parts separate entries of the source, which are not always exact repeats. Identical values can stand only once.

Legend:
T2R38 = molecular target: T1, T2R38 (Homo sapiens, UniProt P59533, A49P/I296V); test: Single cell calcium imaging, Peakrapid cells (Gα16gustducin44) transiently transfected with T2R38; format: cell-based; settings: for response of T2R38 PAV transfected cells (S7_fig raw data): individual values of experiments 1-5; for EC50: concentration-response curve, read-out: EC50; for logEC50: given in the concentration-response curve; for Emax (% of positive control): percentage of the response elicited by 0.1 mM PTC
T1 construct: leader: first 45 amino acids of rat somatostatin receptor subtype 3 (SSTR3) (N); expressed in transfected cells; host or cells: Peakrapid cells (HEK293 derivative, ATCC CRL-2828) stably expressing Galpha16gustducin44, co-transfected with human RTP4
T1 sequence (P59533 1-333 A49P/I296V): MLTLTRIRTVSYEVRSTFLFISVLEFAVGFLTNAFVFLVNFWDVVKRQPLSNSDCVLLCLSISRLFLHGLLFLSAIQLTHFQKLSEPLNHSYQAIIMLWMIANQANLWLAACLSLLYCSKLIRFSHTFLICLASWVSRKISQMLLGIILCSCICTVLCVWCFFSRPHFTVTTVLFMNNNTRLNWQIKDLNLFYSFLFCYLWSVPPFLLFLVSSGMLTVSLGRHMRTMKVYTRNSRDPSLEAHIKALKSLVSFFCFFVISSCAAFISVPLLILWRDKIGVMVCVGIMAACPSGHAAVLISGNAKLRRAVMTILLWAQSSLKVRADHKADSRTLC
Excerpt: (§1) The coding sequences of either the functional (PAV, GenBank accession number AY258597.1) and non-functional (AVI, GenBank accession number AF494231.1) were amplified from human genomic DNA by polymerase chain reaction.
These coding sequences were cloned in a pEFIB backbone vector in translational fusion with the coding sequence of a leader sequence corresponding to the 45 first amino acids of the rat somatostatin receptor subtype 3 [20]. The constructs were verified by sequencing. The coding sequence of RTP4 (Genbank accession number AY562238.1) was amplified from human spleen cDNA and cloned a pCI backbone vector.
The Gα16gustducin44 sequence was generated by swapping the last 132 nucleotides of the G α16 with the corresponding terminal sequence of the Gα-gustducin [21] and was cloned in a pIRES-Puro plasmid. This vector was transfected in the Peakrapid cell line (ATCC reference: CRL-2828™; purchased from LGC Standards SARL, Molsheim, FRANCE), HEK293 cell line derivative, cultured in EMEM culture medium (reference BE12-136F; Lonza, Vervier, BELGIUM) supplemented with 10% of foetal bovine serum (Sigma-Aldrich, Bornem, Belgium) and 1 μg/ml of Puromycin to allow the selection of recombinant cell populations. Cell clones expressing the Gα16gustducin44 were selected and the clone presenting the best functional response of T2R38 to phenylthicarbamide was used for the study (see below).
(§2) The Peakrapid cell line expressing stably a chimeric Gα16gustducin44 G protein [21] was used. 40 000 cells were seeded in each well of a black/clear poly-D-lysine cellware pre-coated 96-well plate (Biocoat®, Becton-Dickinson, Erembodegem, Belgium) and transiently transfected with 50 ng of plasmid DNA containing the receptor sequence or not (empty vector) and with 50 ng of chaperone protein RTP4 per well. Forty hours after transfection, cells were incubated with the calcium-sensitive dye Fluo4 (Life Technologies, Oregon, USA) solubilized at 10 μg/ml in a buffer containing EMEM (150 mM NaCl, 5 mM KCl, 2 mM CaCl2, 1.2 mM MgCl2, 10 mM glucose), 10 mM HEPES, 0.01% (v/v) Pluronic F127, 0.1% (w/v) bovine serum albumin. After 1 h incubation at 37°C, cells were rinsed twice with the same buffer without Fluo4 and left in 50 μl buffer (prior ligand injection). Measurement were performed on a platform based on a motorized Axiobserver Z1 fluorescence microscope piloted by a Axiovision software (Zeiss, Jena, Germany) as described previously. For each selected well, images were taken 1 per second, during 30 seconds. 50 μl of the buffer containing the ligand twice concentrated was injected on the 2nd second of the time lapse record.
After time lapse record, the number of responding cells in each injected well was determined using ImageJ 1.34 (Rasband, W.S., ImageJ, National Institutes of Health, Bethesda, Maryland, USA, http://rsb.info.nih.gov/ij/1997-2004), and expressed as the percentage of the surface of a microscope field covered by activated cells with respect to the total surface of the field covered by confluent cells. Automated determination of the surface occupied by responding cells is easier to perform than a cell counting. The resulting percentage of positive surface provided a convenient estimation of the percentage of responding cells, as observed by comparing the percentage of positive surface and percentage of responsive cells determined by direct counting, in the same experiment. In agreement with the literature, the percentage of responding cells was proportional to the agonist concentration. During experiment in each plate, at least 2 wells were tested with phenylthiocarbamide (PTC) at 0.1 mM, which is one of the best characterized agonist of T2R38 in the literature. The activation of T2R38 by PTC allows normalization of the result of other tested molecules. The results were thus expressed as the percentage of PTC activation. […]

[1] = test system: mock transfected cells (empty vector); test: Single cell calcium imaging, control: mock transfected (empty vector) Peakrapid cells; format: cell-based, human
Description: as §2
(§3) After time lapse record, the number of responding cells in each injected well was determined using ImageJ 1.34 (Rasband, W.S., ImageJ, National Institutes of Health, Bethesda, Maryland, USA, http://rsb.info.nih.gov/ij/1997-2004), and expressed as the percentage of the surface of a microscope field covered by activated cells with respect to the total surface of the field covered by confluent cells. Automated determination of the surface occupied by responding cells is easier to perform than a cell counting. The resulting percentage of positive surface provided a convenient estimation of the percentage of responding cells, as observed by comparing the percentage of positive surface and percentage of responsive cells determined by direct counting, in the same experiment. In agreement with the literature, the percentage of responding cells was proportional to the agonist concentration. During experiment in each plate, at least 2 wells were tested with phenylthiocarbamide (PTC) at 0.1 mM, which is one of the best characterized agonist of T2R38 in the literature. The activation of T2R38 by PTC allows normalization of the result of other tested molecules. The results were thus expressed as the percentage of PTC activation. In scaling calcium imaging assays using this latter receptor, concentration-responses curves were performed and data were fitted to a four parameter logistic equation: y=min+ (max− min)/1+10 ^(logEC50−x)nH . Min and max are the minimum and the maximum values of the percentage of cell-activated surface respectively, y is the percentage of cell-activated surface at the x concentration and nH is the Hill coefficient.

T2R38 AVI = molecular target: T2, T2R38 AVI (Homo sapiens, UniProt P59533, A262V); test: Single cell calcium imaging, control: cells transfected with nonfunctional allele (AVI) of T2R38; format: cell-based; settings: T2R38 AVI, individual values of experiments 1-5
T2 construct: leader: first 45 amino acids of rat somatostatin receptor subtype 3 (SSTR3) (N); expressed in transfected cells; host or cells: Peakrapid cells (HEK293 derivative, ATCC CRL-2828) stably expressing Galpha16gustducin44, co-transfected with human RTP4
T2 sequence (P59533 1-333 A262V): T1 sequence (P59533 1-333 A49P/I296V) with P49A, A262V, V296I
Description: as §1, §2, §3

Q: Which “agonist activity on T2R38 (in words)” value (T2R38) does the source give for CC(C)=O [acetone] here?
A: The value was “able to specifically trigger this receptor”.

Q: And the “response of T2R38 PAV transfected cells (S7_fig raw data)” value (T2R38)?
A: The value was 16% and 18% and 21% and 22% and 7% and 15%.

Q: What about the “percentage of surface covered by activated cells” value (from here on “percentage of surface covered”) (T2R38; acetone 0.0035, log10[ ] -2.45) of the same molecule?
A: Its value is 0.29% and 0.16% and 0.35%.

Q: And the “percentage of surface covered” value (T2R38; acetone 0.011, log10[ ] -1.95)?
A: Its value is 1.02% and 0.77% and 0.78% and 0.46% and 1.17% and 0.98%.

Q: And the “percentage of surface covered” value (T2R38; acetone 0.035, log10[ ] -1.45)?
A: Its value is 0.69% and 0.81% and 7.95% and 5.59% and 2.13% and 2.80%.

Q: And the “percentage of surface covered” value (T2R38; acetone 0.066, log10[ ] -1.18)?
A: The value was 2.66% and 2.94% and 6.89% and 9.70%.

Q: What about the EC50 (T2R38) of the same molecule?
A: The EC50 was 60 mM.

Q: And the logEC50 (T2R38)?
A: The logEC50 was -1.22.

Q: And the “Emax (% of positive control)” value (T2R38)?
A: Its value is 67 % of positive control.

Q: What about the “percentage of surface covered” value ([1]; acetone 0.0035, log10[ ] -2.45) of the same molecule?
A: Its value is 1.26% and 0.40% and 0.58%.

Q: What about the “percentage of surface covered” value ([1]; acetone 0.011, log10[ ] -1.95) of the same molecule?
A: The value was 0.32% and 0.08% and 0.49% and 0.06%.

Q: And the “percentage of surface covered” value ([1]; acetone 0.035, log10[ ] -1.45)?
A: Its value is 0.26% and 0.42% and 1.02% and 0.10%.

Q: And the “percentage of surface covered” value ([1]; acetone 0.066, log10[ ] -1.18)?
A: Its value is 1.43% and 0.30% and 0.70%.

Q: What about the “percentage of surface covered” value ([1]; acetone 0.114, log10[ ] -0.94) of the same molecule?
A: The value was 0.76% and 0.05% and 0.38% and 0.11%.

Q: What about the “percentage of surface covered” value ([1]; acetone 0.162, log10[ ] -0.79) of the same molecule?
A: The value was 1.04% and 0.22% and 0.73% and 0.01%.

Q: What about the “percentage of surface covered” value ([1]; acetone 0.185, log10[ ] -0.73) of the same molecule?
A: Its value is 0.0454% and 0.0283% and 0.02%.

Q: And the “response of T2R38 AVI transfected cells (S7_fig raw data)” value (T2R38 AVI)?
A: Its value is 0.559% and 1.33% and 0.331% and 0.695% and 0.444% and 0.829%.

Q: With CS [methylmercaptan] as the molecule, how does the “agonist activity on T2R38 (in words)” value (T2R38) read?
A: Its value is “able to specifically trigger this receptor”.

Q: And the “response of T2R38 PAV transfected cells (S7_fig raw data)” value (T2R38; listed as méthylmercaptan)?
A: The value was 3.25% and 3.44% and 8% and 6% and 6.36% and 5% and 1.09% and 2.8% and 3.57% and 1.72% and 3% and 1.56% and 5.64% and 4.55%.

Q: What about the EC50 (T2R38) of the same molecule?
A: Its EC50 is 8 mM.

Q: And the logEC50 (T2R38)?
A: Its logEC50 is -2.07.

Q: And the “percentage of surface covered” value (T2R38; méthylmercaptan 0.000630957, log10[ ] -3.2)?
A: The value was 0.11% and 0.07% and 0.29% and 0.31% and 0.27% and 0.54% and 0.96% and 0.62%.

Q: What about the “percentage of surface covered” value (T2R38; méthylmercaptan 0.00439285, log10[ ] -2.35725) of the same molecule?
A: The value was 0.81% and 0.87% and 0.46% and 0.37% and 1.33% and 0.26% and 1.05% and 0.97%.

Q: And the “Emax (% of positive control)” value (T2R38)?
A: The value was 31 % of positive control.

Q: And the “percentage of surface covered” value ([1]; méthylmercaptan 0.0075, log10[ ] -2.12494)?
A: Its value is 0.35% and 0.33% and 0.26% and 0.19% and 1.74% and 0.81% and 0.76%.

Q: What about the “percentage of surface covered” value ([1]; méthylmercaptan 0.01, log10[ ] -2) of the same molecule?
A: The value was 0.36% and 0.09% and 0.12% and 0.53% and 2.03% and 0.10% and 0.15% and 0.34%.

Q: What about the “response of T2R38 AVI transfected cells (S7_fig raw data)” value (T2R38 AVI; listed as méthylmercaptan) of the same molecule?
A: The value was 0.549% and 0.185% and 0.235% and 0.0265% and 0.511% and 0.151% and 0.286% and 0.362% and 1.77% and 0.619% and 1.26% and 0.598% and 0.172% and 0.165%.
